The values that follow come from US5071850A, “2,3-dihydro-3-arylalkylaminoalkyl-4H-1,3-benzoxazin-4-one derivatives, their preparation and their application as medicinal products which are useful in therapy” (Pierre Fabre Medicament, priority 1988, dated 1991).

Counter-ions that a name gives are not always drawn.

The data set in a line: Solubility in water. It is filed as physicochemical.
In turn, `COc1ccc(CCN(C)CCCN2COc3c(OC)cccc3C2=O)cc1OC.Cl` [Compound C, 2,3-Dihydro-3-{3-[(methyl)(3,4-dimethoxyphenethyl)amino]propyl}-8-methoxy-4H-1,3-benzoxazin-4-one hydrochloride] came in with a solubility of around 100 mg/mL.

`COc1ccc2c(c1)C(=O)N(CCCN(C)CCc1ccc(OC)c(OC)c1)CO2.Cl` [Compound D, 2,3-Dihydro-3-{3-[(methyl)(3,4-dimethoxyphenethyl)amino]propyl}-6-methoxy-4H-1,3-benzoxazin-4-one hydrochloride] displayed a solubility above 100 mg/mL.

Consider `COc1ccc2c(c1)OCN(CCCN(C)CCc1ccc(OC)c(OC)c1)C2=O.Cl` [Compound E, 2,3-Dihydro-3-{3-[(methyl)(3,4-dimethoxyphenethyl)amino]propyl}-7-methoxy-4H-1,3-benzoxazin-4-one hydrochloride], for which the solubility came out at 100 mg/mL.

`COc1ccc(CCN(C)CCCN2COc3ccc(C)cc3C2=O)cc1OC.Cl` [Compound F, 2,3-Dihydro-3-{3-[(methyl)(3,4-dimethoxyphenethyl)amino]propyl}-6-methyl-4H-1,3-benzoxazin-4-one hydrochloride] showed a solubility of around 100 mg/mL.

Compound `COc1ccc(CCN(C)CCCN2COc3c(C)cccc3C2=O)cc1OC.Cl` [Compound H, 2,3-Dihydro-3-{3-[(methyl)(3,4-dimethoxyphenethyl)amino]propyl}-8-methyl-4H-1,3-benzoxazin-4-one hydrochloride] came in with a solubility of 80 mg/mL.

The compound `COc1ccc(CCN(C)CCCN2COc3ccc(Br)cc3C2=O)cc1OC.Cl` [Compound K, 6-Bromo-2,3-dihydro-3-{3-[(methyl)(3,4-dimethoxyphenethyl)amino]propyl}-4H-1,3-benzoxazin-4-one hydrochloride] gave a solubility of 90 mg/mL.

Turning to `COc1ccc(CCN(C)CCCN2C(=O)c3cccc(OC)c3OC2C)cc1OC.Cl` (stereo not drawn) [Compound L, 2,3-Dihydro-3-{3-[(methyl)(3,4-dimethoxyphenethyl)amino]propyl}-8-methoxy-2-methyl-4H-1,3-benzoxazin-4-one hydrochloride], the solubility turned out to be 100 mg/mL.

The compound `COc1ccc(CCN(C)CCCN2C(=O)c3cc(OC)c(OC)cc3OC2C)cc1OC.Cl` (stereo not drawn) [Compound M, 2,3-Dihydro-6,7-dimethoxy-3-{3-[(methyl)(3,4-dimethoxyphenethyl)amino]propyl}-2-methyl-4H-1,3-benzoxazin-4-one hydrochloride] came in with a solubility of 100 mg/mL.

For `COc1cc2c(cc1OC)C(=O)N(CCCN(C)CCc1ccccc1)CO2.Cl` [Compound O, 2,3-Dihydro-6,7-dimethoxy-3-{3-[(methyl)(phenethyl)amino]propyl}-4H-1,3-benzoxazin-4-one hydrochloride], the solubility was above 100 mg/mL.

For `COc1ccc(CCNCCCN2COc3cc(OC)c(OC)cc3C2=O)cc1OC.Cl` [Compound P, 2,3-Dihydro-6,7-dimethoxy-3-[3-(3,4-dimethoxyphenethylamino)propyl]-4H-1,3-benzoxazin-4-one hydrochloride], the solubility was above 100 mg/mL.

As to `COc1ccc(CCNCCN2COc3cc(OC)c(OC)cc3C2=O)cc1OC.Cl` [Compound R, 2,3-Dihydro-6,7-dimethoxy-3-[2-(3,4-dimethoxyphenethylamino)ethyl]-4H-1,3-benzoxazin-4-one hydrochloride], the solubility is 120 mg/mL.

Compound `COc1ccc(CCN(CCCN2COc3cc(OC)c(OC)cc3C2=O)Cc2ccccc2)cc1OC` [Example 17, 2,3-Dihydro-6,7-dimethoxy-3-{3-[(benzyl)(3,4-dimethoxyphenethyl)amino]propyl}-4H-1,3-benzoxazin-4-one hydrochloride monohydrate] returned a solubility of 60 mg/mL.

In general, solubility refers to how much of the substance goes into solution per volume. The low end stands for a poorly soluble substance, the high end for a readily soluble substance.
